Test results reported in patent US12697315B2, “Treatment for interstitial lung disease” (United Therapeutics Corporation, priority 2020, dated 2026).

Legend:
[1] = tested on: patients with interstitial lung disease and pulmonary hypertension; test: SpO2 by pulse oximetry around the 6-minute walk test, INCREASE; format: in vivo, human
Experimental: (§1) The 6-minute walk test was performed and laboratory data were obtained at baseline and at weeks 4, 8, 12, and 16, or at the time of early discontinuation of treprostinil or placebo. Each 6-minute walk test was performed 10 to 60 minutes after the most recent dose of active drug or placebo, which is the time of peak plasma treprostinil exposure. A trough test was performed at week 15 at least 4 hours after the participant received a dose of treprostinil or placebo and at least 24 hours before the week 16 test. Pulse oximetry was performed immediately before, during, and after each 6-minute walk test. Measurement of N-terminal pro-B-type natriuretic peptide (NT-proBNP) levels and pulmonary function tests were performed at baseline and at weeks 8 and 16 (or at early discontinuation) after the patients recovered from the 6-minute walk test. The St. George's Respiratory Questionnaire (SGRQ), a quality-of-life measure, was completed at baseline and week 16 or at the time of early discontinuation.

[2] = tested on: patients with interstitial lung disease and pulmonary hypertension; test: St. George's Respiratory Questionnaire, INCREASE; format: in vivo, human
Experimental: as §1
The St. George's Respiratory Questionnaire has a range of results from 0 to 100, with higher scores indicating greater impairment and with a minimum clinically important difference of 4 points.
The changes from baseline in Total Score and each of the 3 domain scores were analyzed by parametric ANCOVA with no imputation for missing data.

[3] = tested on: patients with interstitial lung disease and pulmonary hypertension; test: Supplemental oxygen use, INCREASE; format: in vivo, human
[4] = tested on: patients with interstitial lung disease and pulmonary hypertension; test: Exacerbations of underlying lung disease, 16-week placebo-controlled trial of inhaled treprostinil (INCREASE); format: in vivo, human
Experimental: Subjects having underlying lung disease were treated with inhaled treprostinil over 16 weeks. Subjects initiated inhaled treprostinil or placebo at a dose of 3 breaths (18 mcg) 4 times daily (during waking hours). Study drug doses were maximized throughout the study. Dose escalations (additional 1 breath 4 times daily) could occur up to every 3 days with a target dosing regimen of 9 breaths (54 mcg) 4 times daily and a maximum dose of 12 breaths (72 mcg) 4 times daily, as clinically tolerated. Subjects were assessed during Screening and Baseline to determine eligibility for the study. Once eligible, 5 Treatment Phase visits to the clinic were required at Week 4, Week 8, Week 12, Week 15, and Week 16 (final study visit). An Early Termination (ET) Visit was conducted for subjects who discontinued prior to Week 16; all assessments planned for the final Week 16 Visit were conducted during the ET Visit, if applicable. Subjects were contacted at least weekly by telephone or email to assess tolerance to study drug, adverse events (AEs), and changes to concomitant medications.

[5] = tested on: patients with interstitial lung disease and pulmonary hypertension; settings: human, in vivo, 16 weeks
From the text: (§2) Safety assessments consisted of the development of AEs, vital signs, clinical laboratory parameters, ECG parameters, hospitalizations due to cardiopulmonary indications, exacerbations of underlying lung disease, and oxygenation.
(§3) Safety end points included adverse events, abnormal laboratory results, oxygenation as measured by pulse oximetry (Spo2) and supplemental oxygen requirement, changes in pulmonary function test results, hospitalization for a cardiopulmonary indication, and investigator-reported exacerbations of underlying lung disease, defined as acute, clinically significant respiratory deterioration characterized by evidence of new widespread alveolar abnormality.

[6] = tested on: patients with interstitial lung disease and pulmonary hypertension; test: Adverse events and serious adverse events, INCREASE; settings: 16-week trial
From the text: as §2, §3

For `CCCCC[C@H](O)CC[C@@H]1[C@H]2Cc3cccc(OCC(=O)O)c3C[C@H]2C[C@H]1O` [Inhaled treprostinil, treprostinil], the “During Walk SpO2 (%), Change from Pre-walk, Median” value ([1]; Week 16) was −17.0%, the “During Walk SpO2 (%), Value, Median” value ([1]; Week 16) was 77.0% and the “Post-walk SpO2 (%), Change from Pre-walk, Median” value ([1]; Week 16) was −13.0%. The “Post-walk SpO2 (%), Value, Median” value ([1]; Week 16) was 83.0%, the “Pre-walk SpO2 (%), Value, Median” value ([1]; Week 16) was 95.0% and the “During Walk SpO2 (%), Change from Pre-walk, Mean (SD)” value ([1]; Week 16, n 123) was −17.6 (7.01) %. The “During Walk SpO2 (%), Value, Mean (SD)” value ([1]; Week 16, n 123) was 76.8 (7.70) %, the “Post-walk SpO2 (%), Change from Pre-walk, Mean (SD)” value ([1]; Week 16, n 128) was −12.4 (8.05) % and the “Post-walk SpO2 (%), Value, Mean (SD)” value ([1]; Week 16, n 128) was 82.1 (9.24) %. The “Pre-walk SpO2 (%), Value, Mean (SD)” value ([1]; Week 16, n 130) was 94.5 (4.35) %, the “treatment-related changes in pulse oximetry” value ([1]; over the trial period) was “no significant treatment-related changes” and the “St. George's Respiratory Questionnaire, Change from Baseline, Median” value ([2]; Week 16) was −0.70. The “St. George's Respiratory Questionnaire, Value, Median” value ([2]; Week 16) was 56.30, the “St. George's Respiratory Questionnaire, Change from Baseline, LS Mean (SE)” value ([2]; Week 16, ANCOVA) was −1.30 (0.87) and the “St. George's Respiratory Questionnaire, Change from Baseline, Mean (SD)” value ([2]; Week 16, n 143) was −1.25 (10.99). For the same molecule, the “St. George's Respiratory Questionnaire, Value, Mean (SD)” value ([2]; Week 16, n 143) was 55.91 (17.07), the “St. George's Respiratory Questionnaire, LS Mean Difference” value ([2]; week 16, vs placebo) was −1.18, (1.25) (−3.63, 1.28) and the “between-group difference in patient-reported quality of life assessed with the SGRQ” value ([2]; week 16, vs placebo) was “no significant between-group difference”. The “Supplemental oxygen use During Walk (L/min), Change from Baseline, Median” value ([3]; Baseline During Walk) was 0.0 L/min, the “Supplemental oxygen use During Walk (L/min), Value, Median” value ([3]; Baseline During Walk) was 4.0 L/min and the “Supplemental oxygen use During Walk (L/min), Change from Baseline, Mean (SD)” value ([3]; Baseline During Walk, n 129) was 0.1 (0.8) L/min. The “Supplemental oxygen use During Walk (L/min), Value, Mean (SD)” value ([3]; Baseline During Walk, n 129) was 4.9 (4.0) L/min, the “Supplemental oxygen use Pre-walk (L/min), Change from Baseline, Median” value ([3]; Week 16) was 0.0 L/min and the “Supplemental oxygen use Pre-walk (L/min), Value, Median” value ([3]; Week 16) was 3.0 L/min. For the same molecule, the “Supplemental oxygen use Pre-walk (L/min), Change from Baseline, Mean (SD)” value ([3]; Week 16, n 131) was 0.4 (1.4) L/min, the “Supplemental oxygen use Pre-walk (L/min), Value, Mean (SD)” value ([3]; Week 16, n 131) was 3.0 (2.5) L/min and the “treatment-related changes in supplemental oxygen use” value ([3]; over the trial period) was “no significant treatment-related changes”. The “patients with exacerbations of underlying lung disease” value ([4]; over the 16-week treatment period) was 26.4%, the “hazard ratio, exacerbation of underlying lung disease” value ([4]; vs placebo, 16 weeks) was 0.66 and the “reduction in risk of an exacerbation of underlying lung disease” value ([4]; vs placebo, 16 weeks) was 34%. The “Serious adverse event: Rhinovirus infection” value [5] was 1 n, the “patients with serious adverse events” value [6] was “patients (23.3%)” and the “Adverse event: Cough” value ([6]; N = 163) was 71 (43.6) no. of patients (%). For the same molecule, the “Adverse event: Diarrhea” value ([6]; N = 163) was 22 (13.5) no. of patients (%), the “Adverse event: Dizziness” value ([6]; N = 163) was 30 (18.4) no. of patients (%) and the “Adverse event: Dyspnea” value ([6]; N = 163) was 41 (25.2) no. of patients (%). The “Adverse event: Fatigue” value ([6]; N = 163) was 23 (14.1) no. of patients (%), the “Adverse event: Headache” value ([6]; N = 163) was 45 (27.6) no. of patients (%) and the “Adverse event: NT-proBNP increased” value ([6]; N = 163) was 9 (5.5) no. of patients (%). For the same molecule, the “Adverse event: Nausea” value ([6]; N = 163) was 25 (15.3) no. of patients (%), the “Adverse event: Oropharyngeal pain” value ([6]; N = 163) was 18 (11.0) no. of patients (%) and the “Adverse event: Throat irritation” value ([6]; N = 163) was 20 (12.3) no. of patients (%). The “Any Serious Event, number of patients” value ([6]; N = 163) was 38 patients, the “Patients with ≥1 adverse event” value ([6]; N = 163) was 152 (93.3) no. (%) and the “Patients with ≥1 serious adverse event” value ([6]; N = 163) was 38 (23.3) no. (%). The “Serious adverse event: Abdominal pain” value ([6]; N = 163) was 0 n, the “Serious adverse event: Acute kidney injury” value ([6]; N = 163) was 0 n and the “Serious adverse event: Acute myocardial infarction” value ([6]; N = 163) was 1 n. For the same molecule, the “Serious adverse event: Acute respiratory failure” value ([6]; N = 163) was 4 n, the “Serious adverse event: Acute right ventricular failure” value ([6]; N = 163) was 1 n and the “Serious adverse event: Arrhythmia” value ([6]; N = 163) was 1 n. For the same molecule, the “Serious adverse event: Aspiration” value ([6]; N = 163) was 0 n, the “Serious adverse event: Atrial fibrillation” value ([6]; N = 163) was 0 n and the “Serious adverse event: B-cell lymphoma” value ([6]; N = 163) was 1 n. For the same molecule, the “Serious adverse event: Bradycardia” value ([6]; N = 163) was 0 n, the “Serious adverse event: Bronchitis” value ([6]; N = 163) was 2 n and the “Serious adverse event: Bronchopulmonary aspergillosis” value ([6]; N = 163) was 1 n. The “Serious adverse event: Cardiac arrest” value ([6]; N = 163) was 1 n, the “Serious adverse event: Cardiac failure” value ([6]; N = 163) was 0 n and the “Serious adverse event: Cardiac failure acute” value ([6]; N = 163) was 0 n. For the same molecule, the “Serious adverse event: Cardiac failure congestive” value ([6]; N = 163) was 1 n, the “Serious adverse event: Cardiogenic shock” value ([6]; N = 163) was 0 n and the “Serious adverse event: Cardiopulmonary failure” value ([6]; N = 163) was 1 n. For the same molecule, the “Serious adverse event: Cellulitis” value ([6]; N = 163) was 1 n, the “Serious adverse event: Cerebral haemorrhage” value ([6]; N = 163) was 1 n and the “Serious adverse event: Chest pain” value ([6]; N = 163) was 1 n. The “Serious adverse event: Chronic obstructive pulmonary disease” value ([6]; N = 163) was 2 n, the “Serious adverse event: Chronic respiratory failure” value ([6]; N = 163) was 2 n and the “Serious adverse event: Chronic right ventricular failure” value ([6]; N = 163) was 0 n. For the same molecule, the “Serious adverse event: Coagulopathy” value ([6]; N = 163) was 0 n, the “Serious adverse event: Combined pulmonary fibrosis and emphysema” value ([6]; N = 163) was 1 n and the “Serious adverse event: Cor pulmonale” value ([6]; N = 163) was 1 n. For the same molecule, the “Serious adverse event: Cor pulmonale acute” value ([6]; N = 163) was 0 n, the “Serious adverse event: Coronary artery disease” value ([6]; N = 163) was 0 n and the “Serious adverse event: Death with unknown cause” value ([6]; N = 163) was 3 n. The “Serious adverse event: Disease progression” value ([6]; N = 163) was 0 n, the “Serious adverse event: Dyspnoea” value ([6]; N = 163) was 3 n and the “Serious adverse event: Epistaxis” value ([6]; N = 163) was 0 n. The “Serious adverse event: Fluid overload” value ([6]; N = 163) was 0 n, the “Serious adverse event: Haematochezia” value ([6]; N = 163) was 0 n and the “Serious adverse event: Haemoptysis” value ([6]; N = 163) was 1 n. The “Serious adverse event: Hyperglycaemia” value ([6]; N = 163) was 1 n, the “Serious adverse event: Hypertension” value ([6]; N = 163) was 0 n and the “Serious adverse event: Hypervolaemia” value ([6]; N = 163) was 1 n. For the same molecule, the “Serious adverse event: Hypoxia” value ([6]; N = 163) was 1 n, the “Serious adverse event: Idiopathic pulmonary fibrosis” value ([6]; N = 163) was 1 n and the “Serious adverse event: Influenza” value ([6]; N = 163) was 1 n. The “Serious adverse event: Interstitial lung disease” value ([6]; N = 163) was 3 n, the “Serious adverse event: Left ventricular failure” value ([6]; N = 163) was 1 n and the “Serious adverse event: Lumbar vertebral fracture” value ([6]; N = 163) was 0 n. For the same molecule, the “Serious adverse event: Metabolic encephalopathy” value ([6]; N = 163) was 0 n, the “Serious adverse event: Pain” value ([6]; N = 163) was 0 n and the “Serious adverse event: Pain in extremity” value ([6]; N = 163) was 1 n. The “Serious adverse event: Pneumonia” value ([6]; N = 163) was 1 n, the “Serious adverse event: Pneumonia influenzal” value ([6]; N = 163) was 0 n and the “Serious adverse event: Pneumothorax” value ([6]; N = 163) was 1 n. The “Serious adverse event: Post procedural infection” value ([6]; N = 163) was 0 n, the “Serious adverse event: Presyncope” value ([6]; N = 163) was 0 n and the “Serious adverse event: Pulmonary congestion” value ([6]; N = 163) was 0 n. The “Serious adverse event: Pulmonary hypertension” value ([6]; N = 163) was 1 n, the “Serious adverse event: Pulmonary oedema” value ([6]; N = 163) was 1 n and the “Serious adverse event: Respiratory distress” value ([6]; N = 163) was 0 n. The “Serious adverse event: Respiratory failure” value ([6]; N = 163) was 2 n, the “Serious adverse event: Right ventricular failure” value ([6]; N = 163) was 1 n and the “Serious adverse event: Scleroderma” value ([6]; N = 163) was 0 n. For the same molecule, the “Serious adverse event: Sepsis” value ([6]; N = 163) was 0 n, the “Serious adverse event: Syncope” value ([6]; N = 163) was 1 n and the “Serious adverse event: Tachycardia” value ([6]; N = 163) was 1 n. For the same molecule, the “Serious adverse event: Transplant dysfunction” value ([6]; N = 163) was 0 n, the “Serious adverse event: Upper respiratory tract infection” value ([6]; N = 163) was 2 n and the “Serious adverse event: Urosepsis” value ([6]; N = 163) was 0 n. For the same molecule, the “Total no. of adverse events” value ([6]; N = 163) was 890, the “Total no. of adverse events leading to withdrawal of treprostinil or placebo” value ([6]; N = 163) was 47 and the “Total no. of serious adverse events” value ([6]; N = 163) was 53. For the same molecule, the “patients with serious adverse events” value ([6]; listed as inhaled treprostinil) was 23.3%.
